Reference: ChEMBL document CHEMBL4842357, “Discovery of Novel Apigenin-Piperazine Hybrids as Potent and Selective Poly (ADP-Ribose) Polymerase-1 (PARP-1) Inhibitors for the Treatment of Cancer” (J Med Chem, 2021)

What was measured:
[1] = target: Poly [ADP-ribose] polymerase 1 (Homo sapiens, UniProt P09874); experiment: Inhibition of recombinant human full-length PARP-1 using biotinylated substrate
[2] = target: Poly [ADP-ribose] polymerase 2 (Homo sapiens, UniProt Q9UGN5); experiment: Inhibition of recombinant human full-length PARP-2 using biotinylated substrate
Homo sapiens = species on record: Homo sapiens; experiment: Selectivity index, ratio of IC50 for inhibition of recombinant human full-length PARP-2 to IC50 for inhibition of recombinant human full-length PARP-1

Sequence of Poly [ADP-ribose] polymerase 1 (P09874 whole entry): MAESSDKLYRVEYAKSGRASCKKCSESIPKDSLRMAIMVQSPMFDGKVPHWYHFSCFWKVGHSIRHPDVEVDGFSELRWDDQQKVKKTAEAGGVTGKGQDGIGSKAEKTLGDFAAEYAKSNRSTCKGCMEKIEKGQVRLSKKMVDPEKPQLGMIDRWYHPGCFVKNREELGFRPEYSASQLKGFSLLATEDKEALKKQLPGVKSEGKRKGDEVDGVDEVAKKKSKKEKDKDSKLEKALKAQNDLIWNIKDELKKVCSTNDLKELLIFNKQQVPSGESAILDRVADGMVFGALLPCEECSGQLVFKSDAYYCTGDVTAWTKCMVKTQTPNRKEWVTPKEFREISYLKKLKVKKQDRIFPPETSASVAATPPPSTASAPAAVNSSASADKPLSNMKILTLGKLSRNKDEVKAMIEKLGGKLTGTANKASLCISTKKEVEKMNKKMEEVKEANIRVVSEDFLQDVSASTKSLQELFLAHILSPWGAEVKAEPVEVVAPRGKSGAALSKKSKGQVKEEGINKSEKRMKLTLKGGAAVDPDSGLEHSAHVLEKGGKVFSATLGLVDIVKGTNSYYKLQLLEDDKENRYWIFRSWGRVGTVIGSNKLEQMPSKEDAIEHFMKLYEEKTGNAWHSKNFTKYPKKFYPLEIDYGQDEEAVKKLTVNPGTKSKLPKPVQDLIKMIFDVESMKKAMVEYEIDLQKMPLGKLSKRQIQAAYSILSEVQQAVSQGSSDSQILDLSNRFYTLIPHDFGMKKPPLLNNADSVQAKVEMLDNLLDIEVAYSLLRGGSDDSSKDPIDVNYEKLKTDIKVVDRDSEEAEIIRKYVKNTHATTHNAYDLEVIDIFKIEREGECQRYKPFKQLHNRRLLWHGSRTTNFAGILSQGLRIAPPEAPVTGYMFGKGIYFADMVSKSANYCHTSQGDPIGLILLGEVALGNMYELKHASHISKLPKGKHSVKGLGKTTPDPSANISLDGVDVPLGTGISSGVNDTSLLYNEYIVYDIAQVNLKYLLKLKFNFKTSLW
Sequence of Poly [ADP-ribose] polymerase 2 (Q9UGN5 whole entry): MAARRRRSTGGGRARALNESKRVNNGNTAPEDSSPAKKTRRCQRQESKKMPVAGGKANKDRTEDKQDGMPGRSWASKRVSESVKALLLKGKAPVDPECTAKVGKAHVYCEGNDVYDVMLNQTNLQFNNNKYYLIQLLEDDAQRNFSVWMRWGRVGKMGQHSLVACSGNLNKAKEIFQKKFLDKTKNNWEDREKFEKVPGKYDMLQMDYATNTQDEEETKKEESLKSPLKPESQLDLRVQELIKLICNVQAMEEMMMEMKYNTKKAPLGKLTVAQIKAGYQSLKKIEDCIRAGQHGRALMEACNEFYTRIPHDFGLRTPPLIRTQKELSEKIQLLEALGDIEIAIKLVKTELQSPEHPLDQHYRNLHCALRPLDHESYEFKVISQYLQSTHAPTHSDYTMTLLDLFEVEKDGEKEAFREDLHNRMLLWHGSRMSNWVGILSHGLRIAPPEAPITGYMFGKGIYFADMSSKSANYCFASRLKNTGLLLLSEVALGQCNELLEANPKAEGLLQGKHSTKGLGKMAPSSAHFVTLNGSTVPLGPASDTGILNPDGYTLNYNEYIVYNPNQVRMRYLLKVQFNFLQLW

SMILES | IC50 [1] | IC50 [2] | Ratio IC50 (Homo sapiens)
O=c1cc(-c2ccc(O)cc2)oc2c(CN3CCN(Cc4ccncc4)CC3)c(O)cc(O)c12 | 19.8 nM | 1100 nM | 55.5
O=C(c1cccc(F)c1F)C1CCN(Cc2c(O)cc(O)c3c(=O)cc(-c4ccc(O)cc4)oc23)CC1 | 79.2 nM | 4500 nM | 56.8
O=C(c1ccccn1)N1CCN(Cc2c(O)cc(O)c3c(=O)cc(-c4ccc(O)cc4)oc23)CC1 | 21.8 nM | 1300 nM | 59.6
O=c1cc(-c2cccc(-c3c(O)cc(O)c4c(=O)cc(-c5ccc(O)cc5)oc34)c2)oc2cc(O)cc(O)c12 | 196 nM | 10300 nM | 52.5
O=c1cc(-c2ccc(O)cc2)oc2c(CN3CCN(Cc4ccsc4)CC3)c(O)cc(O)c12 | 49.8 nM | 2800 nM | 56.2
COC(=O)C1CCN(Cc2c(O)cc(O)c3c(=O)cc(-c4ccc(O)cc4)oc23)CC1 | 97.6 nM | 6700 nM | 68.6
O=c1cc(-c2ccc(O)cc2)oc2c(CN3CCN(c4ccccc4)CC3)c(O)cc(O)c12 | 35.6 nM | 2100 nM | 59
O=c1cc(-c2ccc(O)cc2)oc2c(CN3CCN(CC4CCCCC4)CC3)c(O)cc(O)c12 | 58.3 nM | 3200 nM | 54.9
COc1ccc(C(=O)N2CCN(Cc3c(O)cc(O)c4c(=O)cc(-c5ccc(O)cc5)oc34)CC2)cc1 | 43.4 nM | 2500 nM | 57.6
O=c1cc(-c2ccc(O)cc2)oc2c(CN3CC=C(c4ccccc4)CC3)c(O)cc(O)c12 | 139 nM | 7900 nM | 56.6
O=c1cc(-c2ccc(O)cc2)oc2c(CN3CCN(c4ccc(O)cc4)CC3)c(O)cc(O)c12 | 39.7 nM | 2900 nM | 73
O=C(C1CCCCC1)N1CCN(Cc2c(O)cc(O)c3c(=O)cc(-c4ccc(O)cc4)oc23)CC1 | 44.5 nM | 2300 nM | 51.7
Cc1cc(C)cc(COC(=O)N2CCN(Cc3c(O)cc(O)c4c(=O)cc(-c5ccc(O)cc5)oc34)CC2)c1 | 34.6 nM | 2000 nM | 57.8
O=c1cc(-c2cccc(-c3c(O)cc(O)c4c(=O)cc(-c5ccc(O)c(O)c5)oc34)c2)oc2cc(O)cc(O)c12 | 642 nM | 29500 nM | 45.9
O=c1cc(-c2cccc(-c3c(O)cc(O)c4c(=O)cc(-c5cccs5)oc34)c2)oc2cc(O)cc(O)c12 | 202 nM | 11100 nM | 55
Cc1ccc(-c2cc(=O)c3c(O)cc(O)c(-c4cccc(-c5cc(=O)c6c(O)cc(O)cc6o5)c4)c3o2)cc1C | 250 nM | 12700 nM | 50.9
O=C(c1cccc(C(F)(F)F)c1)N1CCN(Cc2c(O)cc(O)c3c(=O)cc(-c4ccc(O)cc4)oc23)CC1 | 41.9 nM | 2900 nM | 69.2
O=c1cc(-c2ccc(O)cc2)oc2c(CN3CCN(Cc4ccc(C(F)(F)F)cc4)CC3)c(O)cc(O)c12 | 29.8 nM | 1900 nM | 63.7
O=c1cc(-c2ccc(O)cc2)oc2c(CN3CCC(c4ccccc4)CC3)c(O)cc(O)c12 | 71.9 nM | 4000 nM | 55.6
O=c1cc(-c2ccc(O)cc2)oc2c(CN3CCC(CO)CC3)c(O)cc(O)c12 | 80.2 nM | 4800 nM | 59.8
O=c1cc(-c2cccc(-c3c(O)cc(O)c4c(=O)cc(-c5ccc(C(F)(F)F)cc5)oc34)c2)oc2cc(O)cc(O)c12 | 502 nM | 26400 nM | 52.6
O=c1cc(-c2ccc(O)cc2)oc2c(CN3CCN(c4ccc(F)cc4)CC3)c(O)cc(O)c12 | 51.4 nM | 2900 nM | 56.4

SMILES | IC50 [1] | IC50 [2] | Ratio IC50 (Homo sapiens)
O=C(C1CC1)N1CCN(Cc2c(O)cc(O)c3c(=O)cc(-c4ccc(O)cc4)oc23)CC1 | 37.5 nM | 2500 nM | 66.7
Cc1ccc(N2CCN(Cc3c(O)cc(O)c4c(=O)cc(-c5ccc(O)cc5)oc34)CC2)cc1 | 48.5 nM | 2800 nM | 57.7
O=C(c1ccncc1)N1CCN(Cc2c(O)cc(O)c3c(=O)cc(-c4ccc(O)cc4)oc23)CC1 | 27.6 nM | 1400 nM | 50.7
O=C(C1CCC1)N1CCN(Cc2c(O)cc(O)c3c(=O)cc(-c4ccc(O)cc4)oc23)CC1 | 45.5 nM | 2600 nM | 57.1
O=c1cc(-c2ccc(O)cc2)oc2c(CN3CCN(c4ccccc4O)CC3)c(O)cc(O)c12 | 37 nM | 2000 nM | 54
O=c1cc(-c2ccc(O)cc2)oc2c(CN3CCN(CC4CCCO4)CC3)c(O)cc(O)c12 (centres undefined) | 40.4 nM | 2500 nM | 61.9
Cc1ccc(CN2CCN(Cc3c(O)cc(O)c4c(=O)cc(-c5ccc(O)cc5)oc34)CC2)cc1 | 30.6 nM | 1800 nM | 58.8
COc1cc(CN2CCN(Cc3c(O)cc(O)c4c(=O)cc(-c5ccc(O)cc5)oc34)CC2)cc(OC)c1 | 27.2 nM | 1700 nM | 62.5
O=C(c1ccccc1)N1CCN(Cc2c(O)cc(O)c3c(=O)cc(-c4ccc(O)cc4)oc23)CC1 | 50.7 nM | 2900 nM | 57.2
CCOC(=O)C1CCN(Cc2c(O)cc(O)c3c(=O)cc(-c4ccc(O)cc4)oc23)CC1 | 92.8 nM | 5600 nM | 60.3
CC(C)CCN1CCN(Cc2c(O)cc(O)c3c(=O)cc(-c4ccc(O)cc4)oc23)CC1 | 70.6 nM | 3700 nM | 52.4
O=c1cc(-c2cccc(-c3c(O)cc(O)c4c(=O)cc(-c5ccc(F)cc5)oc34)c2)oc2cc(O)cc(O)c12 | 179 nM | 8500 nM | 47.4
CC(=O)N1CCN(Cc2c(O)cc(O)c3c(=O)cc(-c4ccc(O)cc4)oc23)CC1 | 42.6 nM | 3000 nM | 70.4
O=c1cc(-c2ccc(O)cc2)oc2c(CN3CCN(c4cncnc4)CC3)c(O)cc(O)c12 | 29.5 nM | 1800 nM | 61
COc1ccc(CN2CCN(Cc3c(O)cc(O)c4c(=O)cc(-c5ccc(O)cc5)oc34)CC2)c(OC)c1OC | 21.6 nM | 1200 nM | 55.5
Cc1ccc(-c2cc(=O)c3c(O)cc(O)c(-c4cccc(-c5cc(=O)c6c(O)cc(O)cc6o5)c4)c3o2)cc1 | 296 nM | 12500 nM | 42.2
CC(C)C(=O)N1CCN(Cc2c(O)cc(O)c3c(=O)cc(-c4ccc(O)cc4)oc23)CC1 | 37.9 nM | 2100 nM | 55.4
O=c1cc(-c2ccc(O)cc2)oc2c(CN3CCN(Cc4ccc(F)cc4)CC3)c(O)cc(O)c12 | 34.5 nM | 2000 nM | 58
O=C(c1ccc(Cl)cc1)N1CCN(Cc2c(O)cc(O)c3c(=O)cc(-c4ccc(O)cc4)oc23)CC1 | 56.2 nM | 3000 nM | 53.4
O=c1cc(-c2ccc(O)cc2)oc2c(CN3CCN(CC4CC4)CC3)c(O)cc(O)c12 | 54.6 nM | 2900 nM | 53.1
O=c1cc(-c2ccc(O)cc2)oc2c(CN3CCN(Cc4ccoc4)CC3)c(O)cc(O)c12 | 43.8 nM | 2600 nM | 59.4
